Results on 13 molecules are retold here after ChEMBL document CHEMBL4219247, “Inhibitors of dihydrofolate reductase as antitumor agents: design, synthesis and biological evaluation of a series of novel nonclassical 6-substituted pyrido[3,2-d]pyrimidines with a three- to five-carbon bridge” (Bioorg Med Chem, 2018).

In test [1] the test system is HL-60. Kind of test: Induction of apoptosis in human HL60 cells assessed as live cells at 0.2 uM after 24 hrs by Annexin V-FITC/propidium iodide staining based flow cytometry (reference value: 90.7%). It counts as functional. (In general: Flow cytometry measures light scatter and fluorescence of single cells or particles in a stream.)
The test system of test [2] is HL-60. Nature of the test: Cell cycle arrest in human HL60 cells assessed as accumulation at G1 phase at 1 uM after 24 hrs by propidium iodide staining based flow cytometry (reference value: 28.69%). It counts as functional.
Test [3] deals with HL-60. Kind of test: Cell cycle arrest in human HL60 cells assessed as accumulation at S phase at 4 uM after 24 hrs by propidium iodide staining based flow cytometry (reference value: 57.76%). It counts as functional.
Test [4] relates to HL-60. Kind of test: Cell cycle arrest in human HL60 cells assessed as accumulation at G2 phase at 4 uM after 24 hrs by propidium iodide staining based flow cytometry (reference value: 13.56%). It counts as functional.
Another test concerns the target T1, Dihydrofolate reductase (Homo sapiens, UniProt P00374).
T1 sequence (P00374 whole entry): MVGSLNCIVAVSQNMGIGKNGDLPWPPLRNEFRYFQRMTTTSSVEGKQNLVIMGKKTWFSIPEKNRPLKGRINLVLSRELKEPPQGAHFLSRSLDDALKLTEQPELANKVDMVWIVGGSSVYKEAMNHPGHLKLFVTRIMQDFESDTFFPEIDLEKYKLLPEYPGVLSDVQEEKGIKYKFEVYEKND
Kind of test: Inhibition of recombinant human DHFR using dihydrofolate as substrate after 15 mins in presence of NADPH.

Test [5] concerns HL-60. Kind of test: Induction of apoptosis in human HL60 cells assessed as early apoptotic cells at 0.2 uM after 24 hrs by Annexin V-FITC/propidium iodide staining based flow cytometry (reference value: 2.09%). It counts as functional.
The subject of test [6] is HL-60. Kind of test: Induction of apoptosis in human HL60 cells assessed as late apoptotic cells at 0.2 uM after 24 hrs by Annexin V-FITC/propidium iodide staining based flow cytometry (reference value: 4.84%). It counts as functional.
Test [7] deals with HL-60. Nature of the test: Induction of apoptosis in human HL60 cells assessed as late apoptotic cells at 0.1 uM after 24 hrs by Annexin V-FITC/propidium iodide staining based flow cytometry (reference value: 4.84%). It counts as functional.
The test system of test [8] is HL-60. Kind of test: Upregulation of DHFR protein level in human HL60 cells at 0.125 uM after 48 hrs by Western blot method relative to control. It counts as functional.
Test [9] relates to HL-60. Kind of test: Induction of apoptosis in human HL60 cells assessed as necrotic cells at 0.1 uM after 24 hrs by Annexin V-FITC/propidium iodide staining based flow cytometry (reference value: 2.36%). It counts as functional.
The test system of test [10] is HL-60. Kind of test: Induction of apoptosis in human HL60 cells assessed as necrotic cells at 0.2 uM after 24 hrs by Annexin V-FITC/propidium iodide staining based flow cytometry (reference value: 2.36%). It counts as functional.
In test [11] the test system is HL-60. Nature of the test: Induction of apoptosis in human HL60 cells assessed as live cells at 0.1 uM after 24 hrs by Annexin V-FITC/propidium iodide staining based flow cytometry (reference value: 90.7%). It counts as functional.
Test [12] relates to HL-60. Nature of the test: Induction of apoptosis in human HL60 cells assessed as early apoptotic cells at 0.1 uM after 24 hrs by Annexin V-FITC/propidium iodide staining based flow cytometry (reference value: 2.09%). It counts as functional.
In test [13] the test system is HL-60. Nature of the test: Antiproliferative activity against human HL60 cells after 48 hrs by MTS assay. The settings on record: HL-60, 48 h. It counts as functional, cell-based. A general note: Tetrazolium dyes change colour on reduction, which living cells bring about.
The subject of test [14] is HL-60. Nature of the test: Upregulation of DHFR protein level in human HL60 cells after 48 hrs by Western blot method. It counts as functional, cell-based.
Test [15] deals with HL-60. Nature of the test: Cell cycle arrest in human HL60 cells assessed as accumulation at S phase at 1 uM after 24 hrs by propidium iodide staining based flow cytometry (reference value: 57.76%). It counts as functional.
For another test, the system named is HCT-116. Kind of test: Antiproliferative activity against human HCT116 cells after 48 hrs by MTS assay. It counts as functional, cell-based. The settings on record: HCT-116, 48 h.
The test system of test [16] is HL-60. Nature of the test: Upregulation of DHFR protein level in human HL60 cells at 0.25 uM after 48 hrs by Western blot method relative to control. It counts as functional. In general terms: Immunoblotting shows a protein as a band on a membrane.
Test [17] has as its system HL-60. Nature of the test: Cell cycle arrest in human HL60 cells assessed as accumulation at G2 phase at 1 uM after 24 hrs by propidium iodide staining based flow cytometry (reference value: 13.56%). It counts as functional.
The test system of test [18] is HL-60. Nature of the test: Cell cycle arrest in human HL60 cells assessed as accumulation at G1 phase at 4 uM after 24 hrs by propidium iodide staining based flow cytometry (reference value: 28.69%). It counts as functional.
In the next test the test system is HeLa. Nature of the test: Antiproliferative activity against human HeLa cells after 48 hrs by MTS assay.
Test [19] relates to HL-60. Kind of test: Upregulation of DHFR protein level in human HL60 cells at 0.5 uM after 48 hrs by Western blot method relative to control. It counts as functional.

As a reminder, the IC50 is the midpoint of a concentration-inhibition curve.

On to `Nc1nc(N)c2nc(CCCc3ccccc3)ccc2n1`, for which the Activity in the test with HL-60 [1] was 76.35%; in the test with HL-60 [2] it was 24.26%; with HL-60 [3], 80.66%; in the test on HL-60 [4], 0%; with HL-60 [5] it was 6.63%; in the test on HL-60 [6], 11.06%. Further, the Activity with HL-60 [7] is 6.69%; in the test with HL-60 [9], 2.21%; in the test on HL-60 [10], 5.96%; in the test on HL-60 [11], 87.64%; in the test with HL-60 [12], 3.45%; in the test on HL-60 [14], “Dose-dependent effect”. For the same molecule, the Activity with HL-60 [15] is given as 62.39%; in the test with HL-60 [17], 13.35%; in the test with HL-60 [18], 19.34%. Also, the IC50 at Dihydrofolate reductase was found to be 0.06 µM; in the test on HL-60 [13] it was 0.2 µM; in the test on HCT-116, 9.56 µM; with HeLa, 49.1 µM. The “fold change (FC)” value amounted to 1.03 with HL-60 [8], 1.62 in the test on HL-60 [16] and 1.98 in the test with HL-60 [19].
As for `Nc1nc(N)c2nc(/C=C/C(=O)/C=C/c3ccccc3)ccc2n1`, the IC50 came out at 70.5 µM at Dihydrofolate reductase, 1.08 µM with HL-60 [13], 12 µM in the test with HCT-116 and 3.7 µM in the test with HeLa.
Take `Nc1nc(N)c2nc(CCC(=O)c3ccccc3)ccc2n1`: the IC50 at Dihydrofolate reductase is 11.2 µM; in the test with HL-60 [13], 8.12 µM; in the test with HCT-116 it was 20.9 µM; in the test on HeLa, 85.6 µM.
The corresponding values for `Nc1nc(N)c2nc(CCCCCc3ccccc3)ccc2n1` are 0.7 µM, 0.78 µM, 11.7 µM and 40.8 µM.
The corresponding values for `Nc1nc(N)c2nc(/C=C/C(=O)c3ccccc3)ccc2n1` are more than 100 µM, 1.5 µM, 10.2 µM and 3.28 µM.
For the molecule `Nc1nc(N)c2nc(CCC(=O)CCc3ccccc3)ccc2n1`, the half-inhibitory concentration (IC50) on Dihydrofolate reductase was found to be 7.93 µM; in the test with HL-60 [13], 3.74 µM; in the test on HCT-116 it was 32.8 µM; with HeLa, 77.5 µM.
With `Nc1nc(N)c2nc(/C=C/CCCc3ccccc3)ccc2n1`, the half-maximal inhibitory concentration (IC50) at Dihydrofolate reductase was determined as 2.1 µM; in the test on HL-60 [13] it was 1.31 µM; with HCT-116, 15.3 µM; with HeLa it was 17.6 µM.
Turning to `Nc1nc(N)c2nc(CCC(O)c3ccccc3)ccc2n1` (stereo not drawn), the IC50 at Dihydrofolate reductase stood at 2.73 µM; in the test with HL-60 [13], 1.52 µM; with HCT-116, 17.3 µM; in the test with HeLa, 74.8 µM.
`Nc1nc(N)c2nc(CCC(O)CCc3ccccc3)ccc2n1` (stereo not drawn): the half-inhibitory concentration (IC50) is 2.53 µM on Dihydrofolate reductase, 1.23 µM in the test on HL-60 [13], 20.6 µM in the test on HCT-116 and 65.1 µM in the test on HeLa.
For `Nc1nc(N)c2nc(/C=C/Cc3ccccc3)ccc2n1`, the IC50 is 0.59 µM on Dihydrofolate reductase, 0.35 µM in the test on HL-60 [13], 13.3 µM in the test on HCT-116 and 25.3 µM in the test on HeLa.
Turning to `Nc1nc(N)c2nc(CCCCc3ccccc3)ccc2n1`, the IC50 at Dihydrofolate reductase was 0.61 µM; in the test on HL-60 [13], 0.59 µM; in the test with HCT-116, 11 µM; with HeLa, 47.1 µM.
Turning to `CN(Cc1cnc2nc(N)nc(N)c2n1)c1ccc(C(=O)N[C@@H](CCC(=O)O)C(=O)O)cc1` [METHOTREXATE], the IC50 with HL-60 [13] came to 0.025 µM; in the test on HCT-116, 0.13 µM.
Regarding `Nc1nc(N)c2nc(/C=C/C=C/c3ccccc3)ccc2n1`, the IC50 came out at 12.3 µM at Dihydrofolate reductase, 6.79 µM in the test on HL-60 [13], 17.7 µM with HCT-116 and 14.9 µM with HeLa.
